Results from patent US20050090451A1, “Treatment of cancer with glutamine” (priority 2002, published 2005).
≈ marks a conversion by molar mass, not a printed value. Read-outs that look alike come from different tables or passages of the source. One block for each molecule: values may come before it. Square brackets hold non-standard residues; d marks the D form. Peptide text beside a SMILES is read from it. Sar = CNCC(=O)O

Legend:
[1] = tested on: human gastrointestinal epithelial cell line (CaCo); assay: Cellular glutamine uptake in CaCo cells (HPLC); type: cell-based
Method: Both samples were allowed to stand for 1 day at room temperature. The supernatant was decanted from the residue and used for the cellular uptake determination.
On Day 1, cells from a human gastrointestinal epithelial cell line (CaCo) were plated at a density of 0.5×10^6 cells per well in a 6-well tissue culture dish.
At time points 0, 10, 20, 40, and 60 seconds the test material was aspirated and the cells washed three times (3×) with chilled (4° C.) phosphate buffered saline (PBS), followed by the addition of 1.0 ml of perchloric acid. Cells were harvested by scraping, then aspiration by pipet into a 1.7 ml tube.
The harvested cells were sonicated for 10 seconds, and 500 μl of sonicated cells were transferred into a 1.7 ml tube. The perchloric acid was neutralized by the addition of 130 μl of 2M KHCO3, and the resulting mixture was frozen overnight at −80° C.
Upon thawing, the sample was centrifuged for 10 minutes at 14,000 rpm and the supernatants were transferred to new 1.7 ml tubes and frozen at −80° C. The resulting clarified samples were thawed and diluted 1:3 with deionized water. […] After incubation for two minutes at room temperature, a 20 μl sample was injected on a Hypersil® C18 Elite 5 μm HPLC column using 70:30 acetonitrile:water as the mobile phase. Glutamine levels, measured as μg/ml, were detected at 340 nm.

Caco-2 cell monolayers [2] = tested on: Caco-2 cell monolayers
Method: (§1) Uptake and permeability of each compound was measured in the apical-to-basolateral direction, with and without vehicle.
(§2) Each compound was tritiated. ^14C-mannitol was used as an evaluation of monolayer/cell integrity (i.e. as a low uptake/permeability marker).
(§3) Uptake and Permeability Assessments. Compound cellular uptake into and permeability across Caco-2 monolayers was measured.
(§4) HBSS was used when no pharmaceutical vehicle was present for each of the four compounds. […] Monolayer integrity was monitored using ^14C-mannitol permeability. Mannitol uptake was also studied.
(§5) Uptake and permeability studies were conducted using Transwelle inserts in the apical to basolateral direction, at intervals of 10 sec., 60 sec., and 5 min.
(§6) ^14C-mannitol and ^3H-drugs were quantified by liquid scintillation counting. For uptake studies, at designated time points (10 sec, 60 sec, and 5 min), the donor solution was aspirated off. The cell monolayer was washed twice with ice cold HBSS to remove any residual binding and then dissolved in 1 ml of the cell solubilizing agent, Solvable®. The cell lysate (0.5 ml) was added to 5 ml scintillation cocktail (Econosafe®) and counted on liquid scintillation counter (Beckman LS5801, Columbia, Md.). For permeability studies, 0.5 ml of received solution was added to 5 ml scintillation cocktail (Econosafe®) and counted on liquid scintillation counter.

Caco-2 cell monolayers [3] = tested on: Caco-2 cell monolayers; remark: listed apart in the source
Method: (§7) Compound cellular uptake into and permeability across Caco-2 monolayers was measured.
(§8) Monolayer integrity was monitored using ^14C-mannitol permeability. Mannitol uptake was also studied.
as §5, §6
(§9) Permeability is an absolute measure (units of cm/Sec or velocity) and can be determined even though the absolute drug concentrations were not known.

[4] = The Merck Index, cited from earlier work
tumor = details: cited from earlier work
[5] = tested on: gut glutathione (GSH) production; assay: Gut GLN and GSH fluxes in DMBA-treated rats; type: in vivo, Sprague-Dawley rats; details: 20 mg DMBA gavage; 1 week after DMBA; FIG. 15
Method: Methods: 80 Sprague-Dawley rats were randomized to 4 groups (n=20/group): DMBA+GLN, DMBA+FA, OIL+GLN, OIL+FA. Rats (age 50 days) were gavaged with a 1-time dose of 20 mg DMBA or oil. Rats were gavaged with AES-14 (1 gm GLN/kg/day) or an isonitrogenous amount of Freamine (FA) from 1 week before till sacrifice at 1 week after DMBA (greatest effect on gut GSH extraction). Arterial and portal blood was taken for GLN and GSH levels, and blood flow measured using 14-C-PAH. Gut GLN and GSH fluxes (uptake or production) were calculated.

[6] = tested on: GSH transport in jejunal basolateral membrane vesicles (BLMV); assay: [3H]Glutathione uptake in jejunal basolateral membrane vesicles after DMBA; type: in vivo, Sprague-Dawley rats; details: 100 mg/kg DMBA single dose; one week after; FIG. 26
Method: Methods: The transport of GSH in the jejunal basolateral membrane vesicles (BLMV) was investigated in Sprague-Dawley rats treated with a single dose of 100 mg/kg DMBA (n=15) or sesame oil (n=15) as controls. The animals were pair-fed pre-defined chow and were given water ad libitum. All rats were sacrificed one week after the DMBA administration. Jejunal basolateral membrane vesicles (BLMV) were prepared using Percoll Colloidal PVP coated silica differential centrifugation technique. All steps were carried out at 2-4° C. Jejunal mucosal scraping was homogenized in isolation buffer containing 180 mM sucrose/2 mM Tris being adjusted to pH 7.40 by 2 mM Hepes using a Polytron homogenizer (Brinkman, Rexdale, ON), at setting 2 to 6 then 6 to 2, over 55 seconds. The homogenate was centrifuges for 10 minutes at 1000 g. The supernatant was filtered through four layers gauze and recollected. The supernatant containing basolateral membrane material then was centrifuged 15 minutes at 22,000 g. […] Protein concentration was determined by the Bio-Rad protein assay (Bio-Rad Laboratories, Hercules, Calif.).
The uptake of [^3H]Glutathione was measured by a rapid mixing/filtration technique. […] All vials were counted with liquid scintillation system LS 1801 (Beckman coulter, Fullerton, Calif.).

[7] = Portal blood and gut mucosa GSH after DMBA; type: in vivo, Sprague-Dawley rats; details: 100 mg/kg DMBA, one week after
[8] = tested on: natural killer (NK) cell cytotoxicity; assay: NK cell cytotoxicity, 51-Chromium release assay with YAC-1; type: in vivo, rats; details: only at week 1 and week 11; FIG. 31
Method: Rats were treated as in Example 5.
NK cell cytotoxicity was measured as follows: Aseptically removed spleens were minced using a sterile scalpel, and lymphocytes were teased from the splenic capsule with warm RPMI 1640 (Gibco BRL, Life Technologies Inc., Grand Island, N.Y.). The resulting cells were poured into 50 ml conical tubes, which were filled with ammonium chloride (0.83%) (Sigma Chemical Co., St. Louis, Mo.) to lyse the red cells. The cell solution was then centrifuged for 10 minutes at 1000 rpm. The supernatant was decanted, and the cell pellet was vortexed with RPMI (no GLN) and centrifuged again. Next, the cells were resuspended in approximately 10 ml of RPMI containing 10% fetal bovine serum […] (Gibco BRL, Life Technologies Inc., Grand Island, N.Y.) supplemented with 1% GLN. This cell suspension was placed in Petri dishes and incubated in 6% CO2 at 37° C. for 30 minutes. After incubation to assure adherence of the monocytes, the nonadherent lymphocytes were counted (1:1 with crystal violet stain). Approximately 7×10^6 total cells from each spleen were incubated for 3 days in RPMI containing 10% FBS and recombinant human IL-2 (500 U/ml). […] The calculation of the NK activity is expressed as the following equation: [formula]

Caco-2 cell monolayers [9] = assay: Caco-2 permeability, apical-to-basolateral; details: Aesgen-14 vehicle vs no vehicle; saturated solutions; 5 minute period; FIGS. 8-11
Method: as §7, §8, §5, §6, §9

Caco-2 cell monolayers [10] = assay: Relative cellular uptake into Caco-2 monolayers, vehicle vs non-vehicle; details: saturated solutions; AES-14 vehicle vs HBSS; FIGS. 3-6
Method: as §1, §2, §3, §4, §5, §6

in vitro = details: human, Caco-2, Mannitol Permeability with Vehicle
Method: as §7, §8, §5, §6, §9

mean cellular glutamine uptake ([1]; normal cells, incubation time 0 seconds): 3.53 µg/mL
mean cellular glutamine uptake ([1]; normal cells, incubation time 10 seconds): 10.30 µg/mL
mean cellular glutamine uptake ([1]; normal cells, incubation time 20 seconds): 2.48 µg/mL
mean cellular glutamine uptake ([1]; normal cells, incubation time 40 seconds): 3.23 µg/mL
mean cellular glutamine uptake ([1]; normal cells, incubation time 60 seconds): 4.85 µg/mL
mean cellular glutamine uptake ([1]; starved cells (L-glutamine deficient medium), incubation time 0 seconds): 1.33 µg/mL
mean cellular glutamine uptake ([1]; starved cells, incubation time 10 seconds): 1.43 µg/mL
mean cellular glutamine uptake ([1]; starved cells, incubation time 20 seconds): 1.49 µg/mL
mean cellular glutamine uptake ([1]; starved cells, incubation time 40 seconds): 2.23 µg/mL
mean cellular glutamine uptake ([1]; starved cells, incubation time 60 seconds): 49.96 µg/mL
enhancement of cellular uptake by vehicle (Caco-2 cell monolayers [2]): enhanced
effect of vehicle on permeability (Caco-2 cell monolayers [3]): no effect
SMILES: NC(=O)CC[C@H](N)C(=O)O [L-glutamine]
solubility in water ([4]; 0° C.): 18 mg/mL (≈ 123 mM)
solubility in water ([4]; 18° C.): 26 mg/mL (≈ 178 mM)
solubility in water ([4]; 30° C.): 48 mg/mL (≈ 328 mM)
tumor volume loss when glutamine was added to the diet (tumor; rats receiving methotrexate, Klimberg 1992): nearly doubled
decrease of tumor growth (tumor; rats, glutamine by gavage or as a food additive, within three weeks, Fahr 1994): 40%

enhancement of cellular drug uptake by vehicle (relative uptake vehicle vs non-vehicle) (Caco-2 cell monolayers [2]): about four-fold
effect of vehicle on permeability (Caco-2 cell monolayers [3]): no effect
SMILES: NC(=O)C[C@H](N)C(=O)O [L-asparagine]

SMILES: Cc1c2ccccc2c(C)c2c1ccc1ccccc12 [DMBA, 7,12-dimethylbenz[a]anthracene]
effect on gut GLN metabolism [5]: not affecting
effect on normal gut GSH production (negative flux) [5]: abrogated
decrease of the rate of total GSH uptake by BLMV vs control group [6]: 42%
decrease of portal blood GSH concentration ([7]; FIG. 27): 34%
increase of gut mucosa GSH ([7]; FIG. 28): two-fold
NK cell activity vs non-DMBA controls [8]: lower

effect of vehicle on permeability (Caco-2 cell monolayers [9]): no effect
SMILES: CN(CC(=O)O)C(=O)CN [glycylsarcosine] (H-Gly-[Sar]-OH)
enhancement of cellular drug uptake by vehicle (relative uptake vehicle vs non-vehicle) (Caco-2 cell monolayers [10]): about four-fold

effect of vehicle on mannitol relative uptake (Caco-2 cell monolayers [2]): no effect
Mannitol Permeability with Vehicle (Caco-2 cell monolayers [3]): Below LOQ
Mannitol Permeability without Vehicle (Caco-2 cell monolayers [3]): Below LOQ
effect of vehicle on mannitol permeability (Caco-2 cell monolayers [3]): no effect
Papp A→B at 5 min (in vitro): 0.916 ×10⁻⁶ cm/s
SMILES: OC[C@@H](O)[C@@H](O)[C@H](O)[C@H](O)CO [Mannitol, mannitol]

effect of vehicle on permeability (Caco-2 cell monolayers [3]): no effect
SMILES: Nc1nc2c(ncn2COCCO)c(=O)[nH]1 [acyclovir]
